Some results are limits rather than exact numbers.

This passage reports IC50 results from patent US20100048597A1 (Novartis AG, priority 2006, published 2010).

Common to all, as to assay type: biochemical
The target of one assay is T1, CDK1/cyclinB (Homo sapiens, UniProt P06493).
T1 construct: purchased Millipore
The assay is described as follows: CDK1/cyclinB kinase assay, IMAP fluorescence polarization. The conditions noted are these: read-out: CDK1 IC50. As for the experimental part: (§1) Kinase assays were performed on recombinant purified enzymes using the non-radioactive IMAP fluorescence polarization assay format.
(§2) Compound stocks were prepared and diluted in DMSO and were added to kinase reactions at a 1/100 dilution for a final concentration of 1% DMSO. The components were added together to final concentrations listed in the tables below and incubated for two hours at room temperature.
(§3) The reactions were stopped by addition of stop solution.
The samples were allowed to incubate for one more hour at room temperature and then the fluorescence polarization was measured.
In general terms: In fluorescence polarisation assays a small probe gives low polarisation when free and higher when bound to something large.

For the next assay, the target named is T2, CDK2/cyclinA (Homo sapiens, UniProt P24941).
T2 construct: purchased Millipore
The assay is described as follows: CDK2/cyclinA kinase assay, IMAP fluorescence polarization. As for the experimental part:
as §1, §2, §3
CDK2: final stop concentration is 1× Developer buffer (100% A), IMAP beads 1/400
(§4) The samples were allowed to incubate for one more hour at room temperature and then the fluorescence polarization was measured. The plate normalized millipolarization (mP) values were plotted against the log of compound concentration for each compound and IC50 values were calculated using the spotfire IC50 calculator and confirmed by visual analysis.

In another assay the target is T3, CDK9/cyclinT1 (Homo sapiens, UniProt P50750).
T3 construct: purchased Millipore
T3 sequence (P50750 whole entry): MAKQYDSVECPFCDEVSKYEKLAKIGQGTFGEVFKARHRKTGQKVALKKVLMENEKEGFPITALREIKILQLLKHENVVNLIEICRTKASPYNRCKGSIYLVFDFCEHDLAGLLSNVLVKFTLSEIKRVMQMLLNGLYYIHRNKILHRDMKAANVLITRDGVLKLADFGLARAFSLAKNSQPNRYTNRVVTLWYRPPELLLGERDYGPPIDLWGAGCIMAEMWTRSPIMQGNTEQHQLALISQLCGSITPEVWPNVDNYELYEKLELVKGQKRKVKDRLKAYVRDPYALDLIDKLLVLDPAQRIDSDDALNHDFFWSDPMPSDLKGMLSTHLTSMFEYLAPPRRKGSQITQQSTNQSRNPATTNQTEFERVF
T3 sequence (O60563 whole entry partner): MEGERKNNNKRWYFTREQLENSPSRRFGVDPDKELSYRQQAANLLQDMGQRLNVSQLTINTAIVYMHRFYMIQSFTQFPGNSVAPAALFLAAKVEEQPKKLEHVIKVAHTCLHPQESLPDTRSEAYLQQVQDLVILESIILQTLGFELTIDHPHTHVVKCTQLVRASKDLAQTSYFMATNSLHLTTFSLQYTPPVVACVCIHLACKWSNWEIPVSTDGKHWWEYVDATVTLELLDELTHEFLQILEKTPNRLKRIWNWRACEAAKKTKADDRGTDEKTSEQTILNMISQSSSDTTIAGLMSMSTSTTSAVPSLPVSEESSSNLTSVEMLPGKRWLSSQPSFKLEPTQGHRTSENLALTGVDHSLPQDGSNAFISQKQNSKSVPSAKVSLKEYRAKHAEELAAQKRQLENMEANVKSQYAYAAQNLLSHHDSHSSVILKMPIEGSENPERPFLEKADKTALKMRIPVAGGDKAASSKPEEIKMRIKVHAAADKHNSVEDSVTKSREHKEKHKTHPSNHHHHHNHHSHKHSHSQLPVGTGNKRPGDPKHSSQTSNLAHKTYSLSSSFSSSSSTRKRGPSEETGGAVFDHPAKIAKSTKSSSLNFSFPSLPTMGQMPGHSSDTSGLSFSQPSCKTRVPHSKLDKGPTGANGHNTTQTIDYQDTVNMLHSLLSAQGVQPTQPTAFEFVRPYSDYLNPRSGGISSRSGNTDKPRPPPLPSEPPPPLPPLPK
The assay is described as follows: CDK9/cyclinT1 kinase assay, IMAP fluorescence polarization. As to the method:
as §1, §2, §3
CDK9/CDK1/CDK7: final stop concentration is 1× Developer buffer (85% A/15% B), IMAP beads 1/400
as §4

T1 sequence (P06493 whole entry): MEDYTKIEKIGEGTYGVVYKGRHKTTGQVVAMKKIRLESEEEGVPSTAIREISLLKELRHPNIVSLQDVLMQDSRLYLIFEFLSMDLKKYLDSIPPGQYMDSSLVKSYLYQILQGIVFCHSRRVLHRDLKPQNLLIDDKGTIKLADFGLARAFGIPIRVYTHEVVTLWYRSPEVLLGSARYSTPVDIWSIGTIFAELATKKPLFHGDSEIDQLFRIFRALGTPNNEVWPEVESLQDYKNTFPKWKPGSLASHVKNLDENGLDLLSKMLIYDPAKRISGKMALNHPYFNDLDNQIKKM
T1 sequence (P14635 whole entry partner): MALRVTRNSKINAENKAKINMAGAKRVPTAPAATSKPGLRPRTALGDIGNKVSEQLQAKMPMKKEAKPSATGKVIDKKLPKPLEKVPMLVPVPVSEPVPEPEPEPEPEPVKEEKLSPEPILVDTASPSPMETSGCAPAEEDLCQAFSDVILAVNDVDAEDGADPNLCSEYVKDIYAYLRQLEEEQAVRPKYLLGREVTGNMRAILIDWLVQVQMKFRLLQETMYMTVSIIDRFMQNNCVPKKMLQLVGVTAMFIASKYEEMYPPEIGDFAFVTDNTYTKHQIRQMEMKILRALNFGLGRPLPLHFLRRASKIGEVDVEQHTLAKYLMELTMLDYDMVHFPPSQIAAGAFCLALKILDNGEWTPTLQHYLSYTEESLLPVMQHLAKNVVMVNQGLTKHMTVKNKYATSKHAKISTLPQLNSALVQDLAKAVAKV

A word on the IC50: it is the point on the concentration scale where inhibition reaches its midpoint. For the compound `Nc1cnccc1-c1ccnc(Nc2cccc(Cl)c2)n1` [Compound 1, [4-(3-Amino-pyridin-4-yl)-pyrimidin-2-yl]-(3-chloro-phenyl)-amine], the IC50 on CDK1/cyclinB, against CDK2/cyclinA and against CDK9/cyclinT1 was less than 5 µM each time.
Regarding `Cc1c(-c2ccnc(Nc3cccc(Cl)c3)n2)ccnc1NCCCN` [Compound 4, N-{4-[2-(3-Chloro-phenylamino)-pyrimidin-4-yl]-3-methyl-pyridin-2-yl}-propane-1,3-diamine], the IC50 at CDK1/cyclinB and at CDK9/cyclinT1 was less than 5 µM each time.
In the case of `CCc1c(-c2ccnc(Nc3cccc(Cl)c3)n2)ccnc1NCCCN` [Compound 5, N-{4-[2-(3-Chloro-phenylamino)-pyrimidin-4-yl]-3-ethyl-pyridin-2-yl}-propane-1,3-diamine], the IC50 at CDK1/cyclinB and against CDK9/cyclinT1 was less than 5 µM each time.
As for `CCc1c(-c2ccnc(Nc3cccc(Cl)c3)n2)ccnc1NCCCNC(C)=O` [Compound 7, N-(3-{4-[2-(3-Chloro-phenylamino)-pyrimidin-4-yl]-3-ethyl-pyridin-2-ylamino}-propyl)-acetamide], the half-maximal inhibitory concentration (IC50) on CDK1/cyclinB and against CDK9/cyclinT1 was less than 5 µM in each case.
Consider `Cc1c(-c2ccnc(N(C)c3cccc(Cl)c3)n2)ccnc1NCCCN` [Compound 8, N-(4-{2-[(3-Chloro-phenyl)-methyl-amino]-pyrimidin-4-yl}-3-methyl-pyridin-2-yl)-propane-1,3-diamine], for which the IC50 at CDK1/cyclinB is 15 to 50 µM; at CDK9/cyclinT1, 5 to 15 µM.
In the same order, the values of `CNCCCN(C)c1nccc(-c2ccnc(Nc3cccc(Cl)c3)n2)c1C` [Compound 9, N-{4-[2-(3-Chloro-phenylamino)-pyrimidin-4-yl]-3-methyl-pyridin-2-yl}-N,N′-dimethyl-propane-1,3-diamine] are less than 5 µM and less than 5 µM.
Taken in the same sequence, the figures for `CC(=O)N(C)CCCN(C)c1nccc(-c2ccnc(Nc3cccc(Cl)c3)n2)c1C` [Compound 10, N-[3-({4-[2-(3-Chloro-phenylamino)-pyrimidin-4-yl]-3-methyl-pyridin-2-yl}-methyl-amino)-propyl]-N-methyl-acetamide] were 5 to 15 µM and less than 5 µM.
Regarding `CNCCCN(C)c1nccc(-c2ccnc(N(C)c3cccc(Cl)c3)n2)c1C` [Compound 11, N-(4-{2-[(3-Chloro-phenyl)-methyl-amino]-pyrimidin-4-yl}-3-methyl-pyridin-2-yl)-N,N′-dimethyl-propane-1,3-diamine], the figures for the concentration for half-maximal inhibition (IC50) on CDK1/cyclinB and against CDK9/cyclinT1 were 15 to 50 µM and more than 50 µM, respectively.
Consider `CC(=O)NCCCNc1nccc(-c2ccnc(N(C)c3cccc(Cl)c3)n2)c1C` [Compound 13, N-[3-(4-{2-[(3-Chloro-phenyl)-methyl-amino]-pyrimidin-4-yl}-3-methyl-pyridin-2-ylamino)-propyl]-acetamide], for which the IC50 on CDK1/cyclinB and against CDK9/cyclinT1 was more than 50 µM in each case.
As to `CC(=O)NCCCNc1nccc(-c2ccnc(Nc3cccc(CNC(C)=O)c3)n2)c1C` [Compound 15, N-[3-(4-{2-[3-(Acetylamino-methyl)-phenylamino]-pyrimidin-4-yl}-3-methyl-pyridin-2-ylamino)-propyl]-acetamide], the IC50 is more than 50 µM on CDK1/cyclinB and less than 5 µM on CDK9/cyclinT1.
Taken in the same sequence, the figures for `Cc1c(-c2ccnc(Nc3cccc(Cl)c3)n2)ccnc1NCCCO` [Compound 17, 3-{4-[2-(3-Chloro-phenylamino)-pyrimidin-4-yl]-3-methyl-pyridin-2-ylamino}-propan-1-ol] were less than 5 µM and less than 5 µM.
With `COCCCNc1nccc(-c2ccnc(Nc3cccc(Cl)c3)n2)c1C` [Compound 18, (3-Chloro-phenyl)-{4-[2-(3-methoxy-propylamino)-3-methyl-pyridin-4-yl]-pyrimidin-2-yl}-amine], the IC50 at CDK1/cyclinB, against CDK2/cyclinA and against CDK9/cyclinT1 was less than 5 µM throughout.
Regarding `CC(=O)OCCCNc1nccc(-c2ccnc(Nc3cccc(Cl)c3)n2)c1C` [Compound 19, Acetic acid 3-{4-[2-(3-chloro-phenylamino)-pyrimidin-4-yl]-3-methyl-pyridin-2-ylamino}-propyl ester], the half-inhibitory concentration (IC50) at CDK1/cyclinB was 5 to 15 µM; on CDK9/cyclinT1 it was less than 5 µM.
Taken in the same sequence, the figures for `Cc1c(-c2ccnc(Nc3cccc(Cl)c3)n2)ccnc1NCCC(=O)O` [Compound 20, 3-{4-[2-(3-Chloro-phenylamino)-pyrimidin-4-yl]-3-methyl-pyridin-2-ylamino}-propionic acid] were 5 to 15 µM and less than 5 µM.
With `Cc1c(-c2ccnc(Nc3cccc(Cl)c3)n2)ccnc1NCCCNc1ccc(CN)cc1` [Compound 27, N-(4-Aminomethyl-phenyl)-N′-{4-[2-(3-chloro-phenylamino)-pyrimidin-4-yl]-3-methyl-pyridin-2-yl}-propane-1,3-diamine], the IC50 was 5 to 15 µM on CDK1/cyclinB and less than 5 µM against CDK9/cyclinT1.
Taken in the same sequence, the figures for `CC(=O)NCc1ccc(NCCCNc2nccc(-c3ccnc(Nc4cccc(Cl)c4)n3)c2C)cc1` [Compound 28, N-[4-(3-{4-[2-(3-Chloro-phenylamino)-pyrimidin-4-yl]-3-methyl-pyridin-2-ylamino}-propylamino)-benzyl]-acetamide] were 15 to 50 µM and less than 5 µM.
Regarding `Cc1cnc(Nc2cccc(Cl)c2)nc1-c1ccnc(NCCCN)c1` [Compound 31, N-{4-[2-(3-Chloro-phenylamino)-5-methyl-pyrimidin-4-yl]-pyridin-2-yl}-propane-1,3-diamine], the half-inhibitory concentration (IC50) on CDK1/cyclinB and on CDK9/cyclinT1 was less than 5 µM each time.
On to `Cc1cc(-c2ccnc(NCCCN)c2)nc(Nc2cccc(Cl)c2)n1` [Compound 33, N-{4-[2-(3-Chloro-phenylamino)-6-methyl-pyrimidin-4-yl]-pyridin-2-yl}-propane-1,3-diamine], for which the IC50 is more than 50 µM on CDK1/cyclinB and 15 to 50 µM on CDK9/cyclinT1.
Turning to `CC(=O)NCCCNc1cc(-c2cc(C)nc(Nc3cccc(Cl)c3)n2)ccn1` [Compound 34, N-(3-{4-[2-(3-Chloro-phenylamino)-6-methyl-pyrimidin-4-yl]-pyridin-2-ylamino}-propyl)-acetamide], the IC50 on CDK1/cyclinB and against CDK9/cyclinT1 was less than 5 µM in each case.
Consider `NCCCNc1cc2c(cn1)CCc1cnc(Nc3cccc(Cl)c3)nc1-2` [Compound 35, N-(3-Amino-propyl)-N-(3-chloro-phenyl)-9,10-dihydro-2,4,7-triaza-phenanthrene-3,6-diamine], for which the IC50 on CDK1/cyclinB and at CDK9/cyclinT1 was less than 5 µM each time.
Consider `CC(=O)NCCCNc1cc2c(cn1)CCc1cnc(Nc3cccc(Cl)c3)nc1-2` [Compound 36, N-{3-[3-(3-Chloro-phenylamino)-9,10-dihydro-2,4,7-triaza-phenanthren-6-ylamino]-propyl}-acetamide], for which the IC50 on CDK1/cyclinB and against CDK9/cyclinT1 was less than 5 µM throughout.
On to `CC(=O)NCCCNc1nccc2c1CCc1cnc(Nc3cccc(Cl)c3)nc1-2` [Compound 38, N-{3-[3-(3-Chloro-phenylamino)-9,10-dihydro-2,4,7-triaza-phenanthren-8-ylamino]-propyl}-acetamide], for which the IC50 on CDK1/cyclinB was 5 to 15 µM; at CDK9/cyclinT1, less than 5 µM.
Turning to `Cc1cnc(NCCCN)cc1-c1ccnc(Nc2cccc(Cl)c2)n1` [Compound 39, N-{4-[2-(3-Chloro-phenylamino)-pyrimidin-4-yl]-5-methyl-pyridin-2-yl}-propane-1,3-diamine], the IC50 on CDK1/cyclinB and against CDK9/cyclinT1 was less than 5 µM throughout.
With `CC(=O)NCCCNc1cc(-c2ccnc(Nc3cccc(Cl)c3)n2)c(C)cn1` [Compound 40, N-(3-{4-[2-(3-Chloro-phenylamino)-pyrimidin-4-yl]-5-methyl-pyridin-2-ylamino}-propyl)-acetamide], the IC50 at CDK1/cyclinB was 15 to 50 µM; against CDK9/cyclinT1, less than 5 µM.
For the compound `Cc1cc(-c2ccnc(Nc3cccc(Cl)c3)n2)cc(NCCCN)n1` [Compound 41, N-{4-[2-(3-Chloro-phenylamino)-pyrimidin-4-yl]-6-methyl-pyridin-2-yl}-propane-1,3-diamine], the concentration for half-maximal inhibition (IC50) on CDK1/cyclinB and against CDK9/cyclinT1 was less than 5 µM in each case.
Consider `Clc1cccc(Nc2nccc(-c3cccnc3Cl)n2)c1` [Compound 43, (3-Chloro-phenyl)-[4-(2-chloro-pyridin-3-yl)-pyrimidin-2-yl]-amine], for which the IC50 at CDK1/cyclinB and against CDK9/cyclinT1 was less than 5 µM throughout.
For the compound `CS(=O)(=O)c1cccc(Nc2nccc(-c3cccnc3Nc3cccc(S(C)(=O)=O)c3)n2)c1` [Compound 51, (3-Methanesulfonyl-phenyl)-{4-[2-(3-methanesulfonyl-phenylamino)-pyridin-3-yl]-pyrimidin-2-yl}-amine], the IC50 on CDK1/cyclinB and against CDK9/cyclinT1 was less than 5 µM each time.
In the case of `COc1ncccc1-c1ccnc(N)n1` [Compound 86, 4-(2-Methoxy-pyridin-3-yl)-pyrimidin-2-ylamine], the IC50 is more than 50 µM at CDK1/cyclinB and 15 to 50 µM against CDK9/cyclinT1.
In the same order, the values of `CNc1nccc(-c2cccnc2OC)n1` [Compound 87, [4-(2-Methoxy-pyridin-3-yl)-pyrimidin-2-yl]-methyl-amine] are 15 to 50 µM and 15 to 50 µM.
Taken in the same sequence, the figures for `COc1ncccc1-c1ccnc(NC2CCCCC2)n1` [Compound 88, Cyclohexyl-[4-(2-methoxy-pyridin-3-yl)-pyrimidin-2-yl]-amine] were 15 to 50 µM and 5 to 15 µM.
In the same order, the values of `COc1ccc(-c2ccnc(Nc3cccc(Cl)c3)n2)c(OC)n1` [Compound 118, (3-Chloro-phenyl)-[4-(2,6-dimethoxy-pyridin-3-yl)-pyrimidin-2-yl]-amine] are more than 50 µM and 5 to 15 µM.
